The source of these data is EP1721601A1, “Use of taurine for enhancing lipid synthesis in the epidermis” (Henkel Kommanditgesellschaft auf Aktien, priority 2005, dated 2006).

“Also recorded” adds a separate entry of the source.

Series [1] deals with Epidermismodelle. The series can be described thus: Irritation markers in vitro: viability and LDH release of SDS-damaged epidermis models. It counts as cell-based. Particulars: for LDH-Freisetzung / Vitalität: 1 h 0,18% SDS, rinsed, then 24 h topical emulsion (C: 0.1 Gew.-% Triamcinolonacetonid; E: 1 Gew.-% Taurin; B: no further treatment), mean +/- SEM, n=3; for LDH-Freisetzung: unbehandelt 0,22, Vehikel 1,95; for Vitalität: unbehandelt 100, Vehikel 66. The method, then:
(§1) Anschließend wurden die Epidermismodelle abgespült und für weitere 24h unter topischer Applikation folgender Emulsionen inkubiert: C: Kortikoid-ratiopharm® Creme (0.1 Gew.-% Triamcinolonacetonid); D: 1,5 Gew.-% Behenylalkohol + 2,75 Gew.-% Arachidylalkohol; E: 1,5 Gew.-% Behenylalkohol + 2,75 Gew.-% Arachidylalkohol +1 Gew.-% Taurin. […] Die Daten repräsentieren die Mittelwerte +/-SEM (n=3).
A general note: Release of lactate dehydrogenase indicates damage to the cell membrane.

Series [2] relates to Interleukin 1-alpha (IL-1alpha). The series can be described thus: Irritation markers in vitro: IL-1alpha release of SDS-damaged epidermis models. It counts as cell-based. Particulars: for IL-1alpha-Freisetzung: 1 h 0,18% SDS, rinsed, then 24 h topical emulsion (C: 0.1 Gew.-% Triamcinolonacetonid; E: 1 Gew.-% Taurin; B: no further treatment), mean +/- SEM, n=3, unbehandelt 15, Vehikel 387. The protocol: as §1

The subject of a further series is Prostaglandin E2 (PGE2). The series can be described thus: Irritation markers in vitro: PGE2 release of SDS-damaged epidermis models. It counts as cell-based. Particulars: for PGE2-Freisetzung: 1 h 0,18% SDS, rinsed, then 24 h topical emulsion (C: 0.1 Gew.-% Triamcinolonacetonid; E: 1 Gew.-% Taurin; B: no further treatment), mean +/- SEM, n=3, unbehandelt 0,84, Vehikel 1,40. The protocol:
as §1

Series [3] relates to epidermale Barrierefunktion. The series can be described thus: Epidermal barrier function (TEWL) after repetitive SDS damage in vivo. The text has this:
Anschließend wurden Öl-in-Wasser-Emulsionen mit 1,5 Gew.-% Behenylalkohol und 2,75 Gew.-% Arachidylalkohol (VAR1: 0 Gew.-% Taurin; VAR2: 1 Gew.-% Taurin) appliziert, oder die Haut verblieb unbehandelt (VAR3). Diese Behandlung wurde zweimal täglich an 5 Tagen durchgeführt. Der transepidermale Wasserverlust (TEWL) wurde jeweils vor der SDS-Schädigung mit einem […] (Courage & Khazaka, Köln, Germany) bestimmt. Die Daten wurden auf die t0-Werte normiert und ein dimensionsloser Wert "area under the curve" errechnet (siehe Tabelle 1). Die statistische Analyse der Daten basiert auf dem gepaarten Wilcoxon-Test. Die Daten repräsentieren die Mittelwerte (n=18). Tab. 2: Einfluss von Taurin auf Irritationsmarker in vitro

The subject of series [4] is Epidermismodelle. Kind of series: Epidermal synthesis of barrier lipids in epidermis models. The class given is cell-based. The protocol: Epidermismodelle wurden 12 Tage lang kultiviert. Nach 12 Tagen (t = 0) wurden die individuell entwickelten sogenannten Barrierelipide (Ceramide, Cholesterol, Fettsäuren, Cholesterolsulfate und Cholesterolester) quantifiziert. Anschließend wurde ein Teil der Epidermismodelle 5 Tage lang ohne Zusatz von Taurin weiterkultiviert. Ein anderer Teil der Epidermismodelle wurde 5 Tage lang […] Zusatz von 0,3 mM Taurin weiterkultiviert. Nach insgesamt 17 Tagen Kultivierungsdauer (t = 5) wurden erneut die Barrierelipide quantifiziert. […] Die in Tab. 3 gezeigten Unterschiede zu t = 5 waren statistisch signifikant (p<0,05). Tabelle 3: Einfluss von Taurin auf die epidermale Synthese von Barrierelipiden (Angaben der Menge an Barrierelipiden in Gew.-%, bezogen auf den Gesamtlipidgehalt der Epidermismodelle, Mittelwerte aus n = 4 Messungen (± Standardabweichung))

[5] abbreviates: incubation of skin models with Taurin, result in words.

On to `CC1(C)O[C@@H]2C[C@H]3[C@@H]4CCC5=CC(=O)C=C[C@]5(C)[C@@]4(F)[C@@H](O)C[C@]3(C)[C@]2(C(=O)CO)O1` [Triamcinolonacetonid, reference compound], for which, in the series on Epidermismodelle [1], the LDH-Freisetzung is recorded as 1,19 +/- 0,16 OD 492nm and the Vitalität was 86 +/- 8%. The IL-1alpha-Freisetzung in series [2] came out at 292 ± 26 pg/mL. Also, the PGE2-Freisetzung with Prostaglandin E2 (PGE2) was 0,30 +/- 0,05 ng/ml.

On to `NCCS(=O)(=O)O` [Taurin, 2-Aminoethansulfonsäure], for which, in series [3] (O/W emulsion with 1 Gew.-% Taurin after occlusive 0.75% SDS, twice daily on 5 days, n=18, Vehikel 62,5 %), the “TEWL "area under the curve", Mittelwert in % (Unbehandelt = 100 %)” value is recorded as 30,3%. Besides, the “transepidermaler Wasserverlust (TEWL), "area under the curve", Mittelwert” value in series [3] (O/W emulsion with 1 Gew.-% Taurin after occlusive 0.75% SDS, twice daily on 5 days, normalised to t0, n=18) was found to be 881932 arbitrary units. Further, the “Regeneration der Hautbarrierefunktion nach SDS-Schädigung” value in series [3] (application of Taurin, result in words) was “signifikant beschleunigt”. The “transepidermaler Wasserverlust (TEWL)” value in series [3] (topical application of Taurin after repeated SDS treatment of the skin, result in words) was “senkte den TEWL in signifikantem Ausmaß”. In addition, in the series on Epidermismodelle [1], the LDH-Freisetzung is recorded as 1,30 +/- 0,15 OD 492nm and the Vitalität is 82 +/- 2%. In the series on Epidermismodelle [1] (setting [5]), the “Integrität der Keratinozytenmembran” value is on record as “stabilisierte sich” and the “Vitalität der Keratinozyten” value is “verbesserte sich”. In series [2], this compound came in with an IL-1alpha-Freisetzung of 288 ± 37 pg/mL. Further, in series [2] (setting [5]), the “Ausschüttung von Interleukin-1-alpha” value is given as “nahm die Ausschüttung von Interleukin-1-alpha und von Prostaglandin-E2 ab”. Also, the PGE2-Freisetzung in the series on Prostaglandin E2 (PGE2) was 0,83 +/- 0,05 ng/ml. The “Ausschüttung von Prostaglandin-E2” value in the series on Prostaglandin E2 (PGE2) (setting [5]) was “nahm die Ausschüttung von Interleukin-1-alpha und von Prostaglandin-E2 ab”. Also, in the series on Epidermismodelle [4] (0,3 mM Taurin for 5 days (t = 5, 17 days culture), % of total lipid content, mean of n = 4 (± SD), without Taurin 0,6), the Cholesterolsulfat was 1,0 (± 0,2) Gew.-%. Moreover, the Cholesterol-ester in the series on Epidermismodelle [4] (0,3 mM Taurin for 5 days (t = 5, 17 days culture), % of total lipid content, mean of n = 4 (± SD), without Taurin 0,9) is reported as 1,6 (± 0,2) Gew.-%. In addition, in the series on Epidermismodelle [4] (0,3 mM Taurin for 5 days (t = 5, 17 days culture), % of total lipid content, mean of n = 4 (± SD), without Taurin 3,5), the Fettsäuren was 5,7 (± 1,5) Gew.-%. Also, in the series on Epidermismodelle [4] (0,3 mM Taurin for 5 days (t = 5, 17 days culture), % of total lipid content, mean of n = 4 (± SD), without Taurin 7,1), the Ceramide was 11.7 (± 1,6) Gew.-%. Also, the Cholesterol with Epidermismodelle [4] (0,3 mM Taurin for 5 days (t = 5, 17 days culture), % of total lipid content, mean of n = 4 (± SD), without Taurin 9,9) is reported as 11,0 (± 1,2) Gew.-%. Also, the “Spiegel an Ceramiden, Cholesterol und freien Fettsäuren” value with Epidermismodelle [4] (skin models with Taurin, result in words) is given as “in gleichem Ausmaß”. Moreover, the “epidermale Synthese von Barrierelipiden” value with Epidermismodelle [4] (skin/epidermis models with Taurin, result in words, differences at t = 5 significant (p<0,05)) is reported as “in signifikantem Ausmaß die Synthese aller drei Klassen von Barrierelipiden; also recorded: Steigerung der epidermalen Synthese von Barrierelipiden”.
